{"source": "patent US11091478B2", "about": "(Fochon Pharmaceuticals, Ltd., priority 2017, dated 2021)", "key": {"DOHH2 cells": {"system": "DOHH2 cells", "assay": "Cell proliferation assay (MTS), DOHH2 cells, 120 h", "format": "cell-based", "conditions": "Homo sapiens, DOHH-2, 120 h", "outline": "(§1)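 RS4;11 and DOHH2 cells at 5000 cells/well in RPMI-1640 with 10% FBS were treated with compound at 1.5–10000 nM final, nine points, at 37 °C, 5% CO2. Exposure was 72 h for RS4;11 and 120 h for DOHH2. MTS was added for 2 h, absorbance read at 490/650 nm, and IC50 calculated.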"}, "RS4;11 cells": {"system": "RS4;11 cells", "assay": "Cell proliferation assay (MTS), RS4;11 cells, 72 h", "format": "cell-based", "conditions": "Homo sapiens, RS4-11, 72 h", "outline": "as §1"}}}
{"smiles": "CN1CCN(CC[C@H]2CSc3cc(S(=O)(=O)NC(=O)c4ccc(N5CCN(CC6=C(c7ccc(Cl)cc7)CC(C)(C)CC6)CC5)cc4Oc4cnc5[nH]ccc5c4)cc([N+](=O)[O-])c3N2)CC1", "note": "[Example 3-19, (S)-2-((1H-pyrrolo[2,3-b]pyridin-5-yl)oxy)-4-(4-((4′-chloro-5,5-dimethyl-3,4,5,6-tetra-hydro-[1,1′-biphenyl]-2-yl)methyl)piperazin-1-yl)-N-((3-(2-(4-methylpiperazin-1-yl)ethyl)-5-nitro-3,4-dihydro-2H-benzo[b][1,4]thiazin-7-yl)sulfonyl)benzamide]", "values": [{"measurement": "IC50", "setting": "DOHH2 cells", "value": 6, "unit": "nM"}, {"measurement": "IC50", "setting": "RS4;11 cells", "value": 1, "unit": "nM"}]}
{"smiles": "CC1(C)CCC(CN2CCN(c3ccc(C(=O)NS(=O)(=O)c4cc5c(c([N+](=O)[O-])c4)N[C@H](CN4CCS(=O)(=O)CC4)CO5)c(Oc4cnc5[nH]ccc5c4)c3)CC2)=C(c2ccc(Cl)cc2)C1", "note": "[Example 2-149, (R)-2-((1H-pyrrolo[2,3-b]pyridin-5-yl)oxy)-4-(4-((4′-chloro-5,5-dimethyl-3,4,5,6-tetra-hydro-[1,1′-biphenyl]-2-yl)methyl)piperazin-1-yl)-N-((3-((1,1-dioxidothiomorpholino)methyl)-5-nitro-3,4-dihydro-2H-benzo[b] [1,4]oxazin-7-yl)sulfonyl)benzamide]", "values": [{"measurement": "IC50", "setting": "DOHH2 cells", "value": 247, "unit": "nM"}, {"measurement": "IC50", "setting": "RS4;11 cells", "value": 50, "unit": "nM"}]}
{"smiles": "CC(C)OC[C@@H]1COc2cc(S(=O)(=O)NC(=O)c3ccc(N4CCN(CC5=C(c6ccc(Cl)cc6)CC(C)(C)CC5)CC4)cc3Oc3cnc4[nH]ccc4c3)cc([N+](=O)[O-])c2N1", "note": "[Example 2-236, (R)-2-((1H-pyrrolo[2,3-b]pyridin-5-yl)oxy)-4-(4-((4′-chloro-5,5-dimethyl-3,4,5,6-tetra-hydro-[1,1′-biphenyl]-2-yl)methyl)piperazin-1-yl)-N-((3-(isopropoxymethyl)-5-nitro-3,4-dihydro-2H-benzo[b][1,4]oxazin-7-yl)sulfonyl)benzamide]", "values": [{"measurement": "IC50", "setting": "DOHH2 cells", "value": 6, "unit": "nM"}, {"measurement": "IC50", "setting": "RS4;11 cells", "value": 1, "unit": "nM"}]}
{"smiles": "CC1(C)CCC(CN2CCN(c3ccc(C(=O)NS(=O)(=O)c4cc([N+](=O)[O-])c5[nH]c(CN6CCOCC6)cc5c4)c(Oc4cnc5[nH]ccc5c4)c3)CC2)=C(c2ccc(Cl)cc2)C1", "note": "[Example 1-21, 2-((1H-pyrrolo[2,3-b]pyridin-5-yl)oxy)-4-(4-((4′-chloro-5,5-dimethyl-3,4,5,6-tetra-hydro-[1,1′-biphenyl]-2-yl)methyl)piperazin-1-yl)-N-((2-(morpholino-methyl)-7-nitro-1H-indol-5-yl)sulfonyl)benzamide]", "values": [{"measurement": "IC50", "setting": "DOHH2 cells", "value": 12, "unit": "nM"}, {"measurement": "IC50", "setting": "RS4;11 cells", "value": 1, "unit": "nM"}]}
{"smiles": "CC1(C)CCC(CN2CCN(c3ccc(C(=O)NS(=O)(=O)c4cc5c(c([N+](=O)[O-])c4)N[C@H](CN=S(C)(C)=O)CO5)c(Oc4cnc5[nH]ccc5c4)c3)CC2)=C(c2ccc(Cl)cc2)C1", "note": "[Example 2-70, (R)-2-((1H-pyrrolo[2,3-b]pyridin-5-yl)oxy)-4-(4-((4′-chloro-5,5-dimethyl-3,4,5,6-tetra-hydro-[1,1′-biphenyl]-2-yl)methyl)piperazin-1-yl)-N-((3-(((dimethyl(oxo)-λ^6-sulfanyl-idene)amino)methyl)-5-nitro-3,4-dihydro-2H-benzo[b][1,4]oxazin-7-yl)sulfonyl)benza-mide]", "values": [{"measurement": "IC50", "setting": "DOHH2 cells", "value": 28, "unit": "nM"}, {"measurement": "IC50", "setting": "RS4;11 cells", "value": 5, "unit": "nM"}]}
{"smiles": "CC1(C)CCC(CN2CCN(c3ccc(C(=O)NS(=O)(=O)c4cc5c(c([N+](=O)[O-])c4)N[C@@H](CCN4CC(O)C4)CO5)c(Oc4cnc5[nH]ccc5c4)c3)CC2)=C(c2ccc(Cl)cc2)C1", "note": "[Example 2-44, (S)-2-((1H-pyrrolo[2,3-b]pyridin-5-yl)oxy)-4-(4-((4′-chloro-5,5-dimethyl-3,4,5,6-tetra-hydro-[1,1′-biphenyl]-2-yl)methyl)piperazin-1-yl)-N-((3-(2-(3-hydroxyazetidin-1-yl)eth-yl)-5-nitro-3,4-dihydro-2H-benzo[b][1,4]oxazin-7-yl)sulfonyl)benzamide]", "values": [{"measurement": "IC50", "setting": "DOHH2 cells", "value": 51, "unit": "nM"}, {"measurement": "IC50", "setting": "RS4;11 cells", "value": 46, "unit": "nM"}]}
{"smiles": "C[C@@H]1COc2cc(S(=O)(=O)NC(=O)c3ccc(N4CCN(CC5=C(c6ccc(Cl)cc6)CC(C)(C)CC5)CC4)cc3Oc3cnc4[nH]ccc4c3)cc([N+](=O)[O-])c2N1", "note": "[Example 2-106, (R)-2-((1H-pyrrolo[2,3-b]pyridin-5-yl)oxy)-4-(4-((4′-chloro-5,5-dimethyl-3,4,5,6-tetra-hydro-[1,1′-bipehnyl]-2-yl)methyl)piperazin-1-yl)-N-((3-methyl-5-nitro-3,4-dihydro-2H-benzo[b][1,4]oxazin-7-yl)sulfonyl)benza-mide]", "values": [{"measurement": "IC50", "setting": "DOHH2 cells", "value": 19, "unit": "nM"}, {"measurement": "IC50", "setting": "RS4;11 cells", "value": 9, "unit": "nM"}]}
{"smiles": "CC1(C)CCC(CN2CCN(c3ccc(C(=O)NS(=O)(=O)c4cc5c(c([N+](=O)[O-])c4)N[C@@H](CN4C[C@@H]6C[C@H]4CO6)CO5)c(Oc4cnc5[nH]ccc5c4)c3)CC2)=C(c2ccc(Cl)cc2)C1", "note": "[Example 2-87, 2-((1H-pyrrolo[2,3-b]pyridin-5-yl)oxy)-N-(((S)-3-(((1S,4S)-2-oxa-5-azabicyclo[2.2.1]heptan-5-yl)methyl)-5-nitro-3,4-dihydro-2H-benzo[b][1,4]oxazin-7-yl)sulfonyl)-4-(4-((4′-chloro-5,5-dimethyl-3,4,5,6-tetrahydro-[1,1′-biphenyl]-2-yl)methyl)piperazin-1-yl) benzamide]", "values": [{"measurement": "IC50", "setting": "DOHH2 cells", "value": 26, "unit": "nM"}, {"measurement": "IC50", "setting": "RS4;11 cells", "value": 7, "unit": "nM"}]}
{"smiles": "CC1(C)CCC(c2ccc(Cl)cc2)=C(CN2CCN(c3ccc(C(=O)NS(=O)(=O)c4cc5c(c([N+](=O)[O-])c4)N[C@H](CO[C@H]4CC[C@H](O)CC4)CO5)c(Oc4cnc5[nH]ccc5c4)c3)CC2)C1", "note": "[Example 2-243, 2-((1H-pyrrolo[2,3-b]pyridin-5-yl)oxy)-4-(4-((4′-chloro-4,4-dimethyl-3,4,5,6-tetrahydro-[1,1′-biphenyl]-2-yl)methyl)piperazin-1-yl)-N-(((R)-3-((((1r,4R)-4-hydroxycyclo-hexyl)oxy)methyl)-5-nitro-3,4-dihydro-2H-benzo[b][1,4]oxazin-7-yl)sulfonyl)benzamide]", "values": [{"measurement": "IC50", "setting": "DOHH2 cells", "value": 1, "unit": "nM"}, {"measurement": "IC50", "setting": "RS4;11 cells", "value": 9, "unit": "nM"}]}
{"smiles": "CC1(C)CCC(CN2CCN(c3ccc(C(=O)NS(=O)(=O)c4cc5c(c([N+](=O)[O-])c4)N[C@@H](CNS(C)(=O)=O)CO5)c(Oc4cnc5[nH]ccc5c4)c3)CC2)=C(c2ccc(Cl)cc2)C1", "note": "[Example 2-66, (S)-2-((1H-pyrrolo[2,3-b]pyridin-5-yl)oxy)-4-(4-((4′-chloro-5,5-dimethyl-3,4,5,6-tetra-hydro-[1,1′-biphenyl]-2-yl)methyl)piperazin-1-yl)-N-((3-(methylsulfonamidomethyl)-5-nitro-3,4-dihydro-2H-benzo[b][1,4]oxazin-7-yl)sulfonyl)benzamide]", "values": [{"measurement": "IC50", "setting": "DOHH2 cells", "value": 13, "unit": "nM"}, {"measurement": "IC50", "setting": "RS4;11 cells", "value": 18, "unit": "nM"}]}
{"smiles": "CC(=O)NC[C@H]1COc2cc(S(=O)(=O)NC(=O)c3ccc(N4CCN(CC5=C(c6ccc(Cl)cc6)CC(C)(C)CC5)CC4)cc3Oc3cnc4[nH]ccc4c3)cc([N+](=O)[O-])c2N1", "note": "[Example 2-53, (S)-2-((1H-pyrrolo[2,3-b]pyridin-5-yl)oxy)-N-((3-(acetamidomethyl)-5-nitro-3,4-dihydro-2H-benzo[b][1,4]oxazin-7-yl)sulfonyl)-4-(4-((4′-chloro-5,5-dimethyl-3,4,5,6-tetra-hydro-[1,1′-biphenyl]-2-yl)methyl)piperazin-1-yl)benzamide]", "values": [{"measurement": "IC50", "setting": "DOHH2 cells", "value": 543, "unit": "nM"}, {"measurement": "IC50", "setting": "RS4;11 cells", "value": 53, "unit": "nM"}]}
{"smiles": "CN1CCN(C[C@H]2COc3cc(S(=O)(=O)NC(=O)c4ccc(N5CCN(CC6=C(c7ccc(Cl)cc7)CC(C)(C)CC6)CC5)cc4Oc4cnc5[nH]ccc5c4)cc([N+](=O)[O-])c3O2)CC1", "note": "[Example 5-2]", "values": [{"measurement": "IC50", "setting": "DOHH2 cells", "value": 25, "unit": "nM"}, {"measurement": "IC50", "setting": "RS4;11 cells", "value": 1, "unit": "nM"}]}
{"smiles": "CC1(C)CCC(c2ccc(Cl)cc2)=C(CN2CCN(c3ccc(C(=O)NS(=O)(=O)c4cc5c(c([N+](=O)[O-])c4)N[C@H](CN4C[C@@H]6C[C@H]4CO6)CO5)c(Oc4cnc5[nH]ccc5c4)c3)CC2)C1", "note": "[Example 2-209, 2-((1H-pyrrolo[2,3-b]pyridin-5-yl)oxy)-N-(((R)-3-(((1S,4S)-2-oxa-5-azabicyclo[2.2.1]heptan-5-yl)methyl)-5-nitro-3,4-dihydro-2H-benzo[b][1,4]oxazin-7-yl)sulfonyl)-4-(4-((4′-chloro-4,4-dimethyl-3,4,5,6-tetrahydro-[1,1′-biphenyl]-2-yl)methyl)piperazin-1-yl) benzamide]", "values": [{"measurement": "IC50", "setting": "DOHH2 cells", "value": 35, "unit": "nM"}, {"measurement": "IC50", "setting": "RS4;11 cells", "value": 1, "unit": "nM"}]}
{"smiles": "CC1(C)CCC(CN2CCN(c3ccc(C(=O)NS(=O)(=O)c4cc5c(c([N+](=O)[O-])c4)N[C@@H](CN4CCC(C)(O)CC4)C5)c(Oc4cnc5[nH]ccc5c4)c3)CC2)=C(c2ccc(Cl)cc2)C1", "note": "[Example 1-9, (R)-2-((1H-pyrrolo[2,3-b]pyridin-5-yl)oxy)-4-(4-((4′-chloro-5,5-dimethyl-3,4,5,6-tetra-hydro-[1,1′-biphenyl]-2-yl)methyl)piperazin-1-yl)-N-((2-((4-hydroxy-4-methylpiperidin-1-yl)methyl)-7-nitroindolin-5-yl)sulfonyl) benzamide]", "values": [{"measurement": "IC50", "setting": "DOHH2 cells", "value": 66, "unit": "nM"}, {"measurement": "IC50", "setting": "RS4;11 cells", "value": 80, "unit": "nM"}]}
{"smiles": "CC1(C)CCC(CN2CCN(c3ccc(C(=O)NS(=O)(=O)c4cc5c(c([N+](=O)[O-])c4)N[C@@H](CN4CCOCC4)CS5)c(Oc4cnc5[nH]ccc5c4)c3)CC2)=C(c2ccc(Cl)cc2)C1", "note": "[Example 3-10, (S)-2-((1H-pyrrolo[2,3-b]pyridin-5-yl)oxy)-4-(4-((4′-chloro-5,5-dimethyl-3,4,5,6-tetra-hydro-[1,1′-biphenyl]-2-yl)methyl)piperazin-1-yl)-N-((3-(morpholinomethyl)-5-nitro-3,4-dihydro-2H-benzo[b][1,4]thiazin-7-yl)sulfonyl)benzamide]", "values": [{"measurement": "IC50", "setting": "DOHH2 cells", "value": 32, "unit": "nM"}, {"measurement": "IC50", "setting": "RS4;11 cells", "value": 11, "unit": "nM"}]}
{"smiles": "CC1(C)CCC(CN2CCN(c3ccc(C(=O)NS(=O)(=O)c4cc5c(c([N+](=O)[O-])c4)N[C@@H](CCO)C5)c(Oc4cnc5[nH]ccc5c4)c3)CC2)=C(c2ccc(Cl)cc2)C1", "note": "[Example 1-19, (R)-2-((1H-pyrrolo[2,3-b]pyridin-5-yl)oxy)-4-(4-((4′-chloro-5,5-dimethyl-3,4,5,6-tetra-hydro-[1,1′-biphenyl]-2-yl)methyl)piperazin-1-yl)-N-((2-(2-hydroxyethyl)-7-nitro-indolin-5-yl)sulfonyl)benzamide]", "values": [{"measurement": "IC50", "setting": "DOHH2 cells", "value": 96, "unit": "nM"}, {"measurement": "IC50", "setting": "RS4;11 cells", "value": 93, "unit": "nM"}]}
